Columns and labels:
Format in all cases: biochemical
[1] = target: JAK3 (Homo sapiens (Human), UniProt P52333); assay: JAK enzymatic assay (peptide mobility shift), JAK3; settings: recombinant JAK3 1 nM, JAKtide peptide, 90 minutes
[2] = target: JAK2 (Homo sapiens (Human), UniProt O60674); assay: JAK enzymatic assay (peptide mobility shift), JAK2; settings: recombinant JAK2 2 nM, JAKtide peptide, 150 minutes
[3] = target: JAK1 (Homo sapiens (Human), UniProt P23458); assay: JAK enzymatic assay (peptide mobility shift), JAK1; settings: recombinant JAK1 20 nM, IRS-1 peptide, 240 minutes
Sequence of JAK1 (P23458 whole entry): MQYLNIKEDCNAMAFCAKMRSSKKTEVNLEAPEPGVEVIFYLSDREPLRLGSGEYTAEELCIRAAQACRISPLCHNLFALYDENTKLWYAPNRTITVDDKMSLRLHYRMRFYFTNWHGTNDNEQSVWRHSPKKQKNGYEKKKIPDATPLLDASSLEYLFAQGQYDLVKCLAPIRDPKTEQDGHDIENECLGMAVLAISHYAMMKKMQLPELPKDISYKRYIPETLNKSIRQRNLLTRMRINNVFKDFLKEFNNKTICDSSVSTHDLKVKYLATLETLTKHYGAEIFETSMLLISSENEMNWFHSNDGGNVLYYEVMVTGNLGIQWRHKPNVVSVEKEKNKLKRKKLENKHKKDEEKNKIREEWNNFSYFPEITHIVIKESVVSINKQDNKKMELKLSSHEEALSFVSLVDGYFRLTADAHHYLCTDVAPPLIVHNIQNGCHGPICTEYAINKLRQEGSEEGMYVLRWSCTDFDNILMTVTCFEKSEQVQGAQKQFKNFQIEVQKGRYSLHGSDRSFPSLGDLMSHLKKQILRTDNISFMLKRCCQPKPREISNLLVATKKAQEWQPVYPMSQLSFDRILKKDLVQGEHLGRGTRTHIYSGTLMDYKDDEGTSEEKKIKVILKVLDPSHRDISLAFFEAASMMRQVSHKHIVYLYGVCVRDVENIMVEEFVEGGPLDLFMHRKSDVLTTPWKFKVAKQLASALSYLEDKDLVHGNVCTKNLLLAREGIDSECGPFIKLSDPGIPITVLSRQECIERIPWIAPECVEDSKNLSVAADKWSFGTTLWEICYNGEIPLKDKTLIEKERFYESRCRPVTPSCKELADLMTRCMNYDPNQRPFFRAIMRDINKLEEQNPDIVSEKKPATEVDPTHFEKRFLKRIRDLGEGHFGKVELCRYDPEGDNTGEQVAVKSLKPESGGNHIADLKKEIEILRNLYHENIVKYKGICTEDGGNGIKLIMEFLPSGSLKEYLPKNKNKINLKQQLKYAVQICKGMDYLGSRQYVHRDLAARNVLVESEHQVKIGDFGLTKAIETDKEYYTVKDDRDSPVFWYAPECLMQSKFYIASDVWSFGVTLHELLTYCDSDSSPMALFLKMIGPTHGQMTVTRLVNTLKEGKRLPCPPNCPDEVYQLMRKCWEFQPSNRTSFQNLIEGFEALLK

Sequence of JAK3 (P52333 781-1124): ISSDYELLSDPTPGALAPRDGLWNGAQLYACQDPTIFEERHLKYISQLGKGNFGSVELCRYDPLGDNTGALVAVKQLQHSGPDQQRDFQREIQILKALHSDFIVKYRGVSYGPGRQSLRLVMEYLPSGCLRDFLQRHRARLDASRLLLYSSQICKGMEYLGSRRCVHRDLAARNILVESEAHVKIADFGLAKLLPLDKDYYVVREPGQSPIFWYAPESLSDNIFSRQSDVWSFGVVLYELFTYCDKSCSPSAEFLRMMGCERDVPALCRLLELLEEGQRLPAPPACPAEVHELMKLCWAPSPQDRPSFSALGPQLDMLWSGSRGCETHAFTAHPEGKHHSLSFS
Sequence of JAK2 (O60674 808-1132): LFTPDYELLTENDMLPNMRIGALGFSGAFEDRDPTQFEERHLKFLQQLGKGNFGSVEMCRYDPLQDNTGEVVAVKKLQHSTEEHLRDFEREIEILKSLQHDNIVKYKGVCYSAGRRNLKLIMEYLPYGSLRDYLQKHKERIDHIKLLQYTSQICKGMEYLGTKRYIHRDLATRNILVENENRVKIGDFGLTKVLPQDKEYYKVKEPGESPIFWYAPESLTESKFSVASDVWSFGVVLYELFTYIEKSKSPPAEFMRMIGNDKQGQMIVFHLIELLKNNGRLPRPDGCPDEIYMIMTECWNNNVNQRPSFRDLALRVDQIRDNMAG

Row | IC50 [1] | IC50 [2] | IC50 [3] | Compound
1 | 319 nM | 36.4 nM | 20.8 nM | CN(c1ncnc2[nH]ccc12)[C@H]1CC[C@H](CS(=O)(=O)N2CC[C@H](F)C2)CC1 [Example 70, N-[trans-4-({[(3S)-3-fluoropyrrolidin-1-yl]sulfonyl}methyl)cyclo-hexyl]-N-methyl-7H-pyrrolo[2,3-d]pyrimidin-4-amine]
2 | 781 nM | 85.1 nM | 16.4 nM | CC1CCN(S(=O)(=O)C[C@H]2CC[C@H](N(C)c3ncnc4[nH]ccc34)CC2)CC1 [Example 51, N-methyl-N-(trans-4-{[(4-methylpiperidin-1-yl)sulfonyl]-methyl}cyclohexyl)-7H-pyrrolo[2,3-d]pyrimidin-4-amine]
3 | 31.7 nM | 4.09 nM | 1.2 nM | CCOC1CCCN(S(=O)(=O)CC2CCC(N(C)c3ncnc4[nH]ccc34)CC2)C1 (stereo not drawn) [Example 3, N-(trans-4-{[(3-ethoxypiperidin-1-yl)sulfonyl]methyl}cyclo-hexyl)-N-methyl-7H-pyrrolo[2,3-d]pyrimidin-4-amine]
4 | 1.29 nM | 0.109 nM | 0.0245 nM | CN1CCN(S(=O)(=O)C[C@H]2CC[C@H](N(C)c3ncnc4[nH]ccc34)CC2)CC1 [Example 136, N-methyl-N-(trans-4-{[(4-methylpiperazin-1-yl)sulfonyl]methyl}cyclohexyl)-7H-pyrrolo[2,3-d]pyrimidin-4-amine]
5 | 169 nM | 16.2 nM | 5.41 nM | CN(c1ncnc2[nH]ccc12)[C@H]1CC[C@H](CS(=O)(=O)N2CCC[C@H](O)C2)CC1 [Example 14, (3S)-1-[({trans-4-[methyl-(7H-pyrrolo[2,3-d]-pyrimidin-4-yl)amino]-cyclohexyl}methyl)sulfonyl]-piperidin-3-ol]
6 | 595 nM | 43.1 nM | 10.4 nM | CN(c1ncnc2[nH]ccc12)[C@H]1CC[C@H](CS(=O)(=O)N2CCN(c3ncccc3C(=O)NC3CC3)CC2)CC1 [Example 121, N-cyclopropyl-2-{4-[({trans-4-[methyl(7H-pyrrolo[2,3-d]pyrimidin-4-yl)amino]-cyclohexyl}methyl)sulfonyl]piperazin-1yl}nicotinamide]

More lines, now with the values behind:

Row | Compound | IC50 [1] | IC50 [2] | IC50 [3]
7 | CN(c1ncnc2[nH]ccc12)[C@H]1CC[C@H](CS(=O)(=O)N2CC[C@@H](O)[C@@H](O)C2)CC1 [Example 13, (3S,4R)-1-[({trans-4-[methyl(7H-pyrrolo[2,3-d]pyrimidin-4-yl)amino]-cyclohexyl}methyl)sulfonyl]-piperidine-3,4-diol] | 275 nM | 32 nM | 6.99 nM
8 | CN(c1ncnc2[nH]ccc12)[C@H]1CC[C@H](CS(=O)(=O)N2CCC(COCC3CC3)CC2)CC1 [Example 56, N-{trans-4-[({4-[(cyclopropyl-methoxy)-methyl]piperidin-1-yl}-sulfonyl)-methyl]-cyclohexyl}-N-methyl-7H-pyrrolo[2,3-d]-pyrimidin-4-amine] | 170 nM | 59.8 nM | 4.07 nM
9 | CN(c1ncnc2[nH]ccc12)[C@H]1CC[C@H](CS(=O)(=O)N2CCC[C@H](CS(N)(=O)=O)C2)CC1 [Example 66, 1-{1-[({trans-4-[methyl(7H-pyrrolo[2,3-d]pyrimidin-4-yl)amino]cyclohexyl}-methyl)sulfonyl]piperidin-3-yl}-methanesulfonamide] | 128 nM | 22 nM | 3.1 nM
10 | CN(c1ncnc2[nH]ccc12)[C@H]1CC[C@H](CS(=O)(=O)N2CC[C@H](NC(=O)OC(C)(C)C)C2)CC1 [Example 26, tert-butyl {(3S)-1-[({trans-4-[methyl(7H-pyrrolo[2,3-d]pyrimidin-4-yl)amino]-cyclohexyl}methyl)sulfonyl]-pyrrolidin-3-yl}carbamate] | 230 nM | 48.4 nM | 1.44 nM

From US8633206B2, “Pyrrolo[2,3-D]pyrimidine compounds” (Pfizer Inc., priority 2009, dated 2014)
